Broadly, the melting point is the temperature of the solid-liquid transition.

On to `O=c1oc(Oc2ccc(Cl)cc2)nn1-c1ccccc1Cl`, for which the melting point came out at 110 °C.
`Cc1ccc([N+](=O)[O-])c(=O)[nH]1` had a melting point of 222 to 223 °C.
With `COc1ccc(NC(=O)c2sccc2S(=O)(=O)Nc2onc(C)c2Br)cc1` the figure was 202 to 205 °C.
Under `Cc1ccc(C(=S)OCSC#N)cc1` stands 55 °C; under `CC(C)(C)OC(=O)N1CCC(=O)N(CCCC=O)CC1`, 86 to 87 °C; under `CCOc1c(C(=O)Nc2ccccc2)csc1Cl`, 69 °C.
With `Cc1c(N)ccn2nc(-c3ccccc3)nc12` the figure was 213 to 215 °C; with `O=C(OCc1ccccc1)c1ccc(O)c(O)c1`, 147 to 149 °C; with `NCc1cn2ccccc2n1`, 91 to 93 °C.
Turning to `CC1(C)CC(C)(C)CC(O)(C#Cc2ccccn2)C1`, the melting point was in the range of 126 to 127 °C.
With `CCOC(=O)c1c(N2CCN(C)CC2)c2cc(C)ccc2n(-c2ccccc2)c1=O` the figure was 188 °C; with `CS(=O)(=O)c1ccc(-c2cnn(CC(F)(F)F)c(=O)c2OCc2ccco2)cc1`, 113 to 115 °C.
Under `O=C1CCNC(=O)C1C(=O)c1ccc(C(F)(F)F)cc1` (stereo not drawn) stands 197 to 200 °C; under `O=C(O)c1ncc(C(c2ccccc2)c2ccccc2)cc1C(c1ccccc1)c1ccccc1`, 172 to 175 °C.
With `NCC1(O)CCN(CC2OCCO2)CC1` the figure was 137 °C; with `NC(=O)N1CCC(Oc2ccc([N+](=O)[O-])cc2)(c2ccccc2)CC1`, 203 to 206 °C; with `CC(C(=O)O)c1ccc(-c2ccc(Br)cc2)c(F)c1` (stereo not drawn), 133 to 135 °C.
With `Cn1ccnc1N1CCC(c2ccc([N+](=O)[O-])cc2)CC1`, the melting point lay in the range of 155 to 156 °C.
With `COc1ccc2nccc(CCC[C@@H]3CCN(CCCc4cccc(F)c4)C[C@@H]3C(=O)O)c2c1` the figure was 206 °C; with `O=C1CC[C@]2(C[C@H]3CC[C@@H]2C3)C(=O)N1` (racemic), 154 to 156 °C.
With `CC(C)(C)CNc1cc(N2CCNCC2)nc(NC(C)(C)C)n1` the figure was 120 to 124 °C; with `Cn1nnnc1-c1cn(C)c2ccccc2c1=O`, 220 to 222 °C.
With `CC12CCC(=O)NC1=CCc1cc(F)ccc12` (stereo not drawn) the figure was 202 °C; with `O=C1Cc2cc(C(=O)N3CCN(C(=O)c4ccccc4)CC3)ccc2N1`, 268 to 270 °C.
For `COc1cc(C(C)C)c(OC(C#N)=CNc2ccccc2)cc1I`, the melting point was 170 °C.
With `CCCCc1[nH]c(CC)nc(=O)c1Cc1ccc(-c2ccccc2C(=O)O)cc1` the figure was 207 °C; with `O=C(c1ccccc1)N1CCCC(c2ccc(Cl)cc2)=N1`, 117 to 118 °C.
On to `Clc1ccc(Cn2ccc3cc(OCc4nnn[nH]4)ccc32)cc1`, for which the melting point fell in the range of 162 to 163 °C.
With `C#CCCCCC12SCC(CCC)(CS1)CS2` the figure was 88 °C; with `Cc1cccc(C)c1NCCCNCC(O)COc1ccc(O)cc1` (stereo not drawn), 97 to 98 °C; with `Cc1nc(Oc2ccccc2)c2nc(C)n(CCNC(=O)OC(C)(C)C)c2c1C`, 180 to 182 °C.
Under `COc1c(OC)c(-c2ccccc2)n(-c2ccc(C)cc2)c1-c1ccccc1` stands 192 to 193 °C; under `CCNC(=O)c1ccccc1Nc1nc(Nc2ccc3c(c2)CCN(CCOC)CC3)ncc1Cl`, 150 to 184 °C.
For `CC(=O)OCc1cccc(-n2cccc2)c1Br`, the melting point fell in the range of 84 to 86.5 °C.
With `CCc1nc2ccc(Br)cc2c2ccc(F)cc12` the figure was 111 °C; with `Clc1ccc(-c2c(-c3ccncc3)nc(-c3c(Cl)cccc3Cl)n2C2CC2)cc1`, 210 to 211 °C; with `CC(C)NCCNc1ccc2ncc(Br)n2n1`, 87 to 88 °C.
With `CCCN1NCc2c(C3C(=O)Nc4ccc(F)cc43)ncnc21` (stereo not drawn) the figure was 288 to 292 °C; with `CSc1ccc(-c2nc(SC)c(C#N)c(=O)n2-c2ccc(C(C)(C)C)cc2)cc1`, 233 to 236 °C.
Under `O=S(=O)(NCCCCOc1ccc(-n2ccnc2)cc1)c1ccccc1` stands 110 to 111 °C.
In turn, `O[C@H](CCc1cccnc1)COc1ccc(-c2ccc(F)cc2)cc1` gave a melting point of 124 to 125 °C.
With `Fc1ccc(-c2ncc(Br)cn2)cc1` the figure was 156 °C; with `CCC1Cc2c(N3CCOCC3)c(F)cc3c(=O)c(C(=O)O)cn1c23` (stereo not drawn), 275 to 278 °C.
With `CCOC(=O)Cc1ccc(OCc2nc(-c3ccccc3)oc2C)c(OC)c1` the figure was 86 to 87 °C; with `CCCCCCCCCCCCCCOc1ccc(C(=O)O)cc1C(C)(C)C`, 121 to 123 °C.
Under `CCCCCCCCCC(Oc1ccc(C2=CCCCCC2)cc1)C(=O)O` (stereo not drawn) stands 79 to 81 °C; under `CCCCCc1c(C(C)C)nc(C(C)C)c(CO)c1-c1ccc(C)cc1`, 92 to 94 °C; under `C=Cc1ccc(OC(=O)c2ccccc2)cc1`, 75 to 76 °C.
For the compound `COc1cc(CC(=O)OC(C)(C)C)ccc1NC(=O)Nc1ccccc1C(F)(F)F`, the melting point was in the range of 131 to 133 °C.
With `CCCCOCCOc1ccc(-c2ccc3c(c2)C=C(C(=O)O)CCN3Cc2ccccc2)cc1` the figure was 133 to 138 °C; with `CC1(C)CCC(C)(C)c2cc(-c3cnn(-c4ccc(C(=O)O)cc4)c3)ccc21`, 229 to 232 °C; with `CC(C)N(CCN1C(=O)/C(=N/NC(N)=O)c2cc(Br)ccc21)C(C)C`, 149 to 153 °C.
As for `Cc1nnc2c(C(C)Br)ccnn12` (stereo not drawn), the melting point lay within 125 to 128 °C.
With `CC1(C)Cc2ccc(F)cc2C=[N+]1[O-]` the figure was 88 to 90 °C; with `CCOC(=O)c1cc(N)nc(SCc2ccc3ccccc3c2)n1`, 188 to 189 °C; with `Cc1nn(C)c2c(Cl)ncnc12`, 92 to 95 °C.
Under `CCCCCCCCON=C(C(=O)OCC)c1csc(N)n1` stands 77 to 78 °C.
The compound `CS(=O)(=O)SCCCCC(=O)O` showed a melting point of 69 to 71 °C.
With `Cc1c(C=NO)c2cc(F)ccc2n1-c1ccc(O)cc1` the figure was 162 to 163 °C.
With `CC1(C)Oc2ccccc2C(c2ccc[nH]c2=O)C1O` (stereo not drawn) the figure was 244 to 246 °C.
Under `O=C(Nc1ccccc1)C1=CNCCC1` stands 209 to 212 °C; under `C[C@@H]1CN(C(=O)[C@@](C)(O)C(F)(F)F)[C@@H](C)CN1S(=O)(=O)c1ccc(F)cc1`, 174 to 175 °C; under `CC1(C)CC(N(C=O)CCCCCCN(C=O)C2CC(C)(C)NC(C)(C)C2)CC(C)(C)N1`, 155 °C.
`CN1CCc2c(Cl)ccc3c4c(n(c23)CC1)CCC4` displayed a melting point of 138 to 140 °C.
With `N#Cc1c(F)nc2ccc([N+](=O)[O-])cc2c1F` the figure was 128 to 129 °C; with `CC(=O)OC[C@@H]1CCCN1C(c1ccccc1)(c1ccccc1)c1ccccc1Cl`, 102 to 104 °C.
Consider `Cc1c(C)n(CC2CC2C)c2c(OCc3ccc(F)cc3)nncc12` (stereo not drawn), for which the melting point lay within 114 to 115 °C.
Under `CC(C)(C)Nc1cc(Cl)nc(NC(C)(C)C)n1` stands 128 to 130 °C.

The values are drawn from a melting point compilation (Tetko et al.; mined from patent text by program, amines drawn as free bases though some values may be those of a salt).
